# Results published in patent US9475789B2, “Use of polyenylpyrrole derivatives for treating inflammation” (WELLHEAD BIOLOGICAL TECHNOLOGY CORP., priority 2014, dated 2016).
# Tests used:
# TNF-α = TNF-α ELISA, RAW 264.7 macrophages; type: cell-based, murine
# Protocol: In (A) and (C), cells (5×10^5/ml) were incubated with polyenylpyrrole derivatives or DMSO (vehicle) for 30 min followed by stimulating with LPS (1 μg/ml) for 24 h, then NO (A), IL-6 and TNF-α (C) concentration in culture medium were assayed by Griess reaction and ELISA, respectively. In (B), cells (5×10^5/ml) were pretreated with polyenylpyrrole derivatives or DMSO for 30 min followed by stimulating with LPS (1 μg/ml) for 24 h, then the protein expression of iNOS and COX-2 were assayed by Western blot.
# The effects of tested samples on IL-1β, TNF-α and IL-6 production were measured by ELISA according to the manufacturer's instruction. In brief, 50 μl of biotinylated antibody reagent and 50 μl of supernatant were added to an anti-mouse IL-1β, TNF-α and IL-6 precoated stripwell plate, and incubated at room temperature for 2 h. After washing the plate three times with washing buffer, 100 μl of diluted streptavidin-HRP concentrate was added to each well and incubated at room temperature for 30 min. The washing process was repeated; then 100 μl of a premixed tetramethylbenzidine substrate solution was added to each well and developed at room temperature in the dark for 30 min. Following the addition of 100 μl of stop solution to each well to stop the reaction, the absorbance of the plate was measured by a microplate reader at 450 nm wavelength.
# caspase-1 = assay: Western blot of active caspase-1 (p10), LPS+ATP-activated J774A.1 macrophages; type: cell-based, mouse
# Protocol: (A) J774A.1 macrophages (1×10^6/ml) and (B) peritoneal macrophages (1×10^5/ml) were incubated with compound 1h for 30 min followed by LPS (1 μg/ml) stimulating for 5.5 h, then the cells were stimulated with ATP (5 mM) for an additional 30 min. The IL-1β in the culture medium was measured by ELISA and the expression of active caspase-1 (p10) was measured by Western blot. In (C) and (D), J774A.1 macrophages (1×10^6/ml) were incubated with LPS (1 μg/ml) for 5.5 h, then cells were incubated with compound 1h for 30 min followed by stimulating with ATP (5 mM) for an additional 30 min. The IL-1β and IL-6 in the culture medium were measured by ELISA and the expression of active caspase-1 (p10) was measured by Western blot. In (E), J774A.1 macrophages (1×10^6/ml) were incubated with compound 1h for 30 min followed by LPS (1 μg/ml) stimulating for 6 h. The expression of NLRP3 and proIL-1β were measured by Western blot.
# (§1) Whole cell lysates were separated by SDS-PAGE and electrotransferred to a PVDF membrane. The membranes were incubated in blocking solution—5% nonfat milk in phosphate buffered saline with 0.1% Tween 20—at room temperature for 1 h. Each membrane was incubated with a specific primary antibody at room temperature for 2 h. After washing three times in PBS with 0.1% Tween 20, the membrane was incubated with an HRP-conjugated secondary antibody directed against the primary antibody. […]
# ROS = assay: Intracellular ROS production, ATP-activated J774A.1 macrophages; type: cell-based, murine
# Protocol: (§2) In (A), J774A.1 macrophages (1×10^6/ml) were incubated with LPS (1 μg/ml) for 5.5 h and then incubated with compound 1 h ([…]), DPI (100 μM), or DMSO (vehicle) for 30 min followed by ATP (5 mM) stimulating for the indicated time, then ROS levels were measured by detection of the fluorescence intensity of the fluorophore carboxyl-DCF and expressed relative to those at time zero. In (B), J774A.1 macrophages (1×10^6/ml) were incubated with compound 1h (20 μM), DPI (100 μM), or DMSO (vehicle) for 30 min followed by LPS (1 μg/ml) stimulating for 5.5 h, then the cells were stimulated with ATP (5 mM) for the indicated time. The ROS levels were measured by detection of the fluorescence intensity of the fluorophore carboxyl-DCF and expressed relative to those at time zero. In (C), LPS-primed J774A.1 macrophages (1×10^6/ml) were incubated with compound 1h (20 μM) or DMSO (vehicle) for 30 min followed by ATP (5 mM) stimulating for 0-60 min, then the phosphorylation level of PKC-α was analyzed by Western blot.
# Intracellular ROS stimulated by LPS was measured by detecting the fluorescence intensity of the 2′,7′-dichlorofluorescein diacetate (H2DCFDA) oxidized product (DCF) (Molecular Probes, Eugene, Oreg.). […]
# PKC-α = assay: Western blot of PKC-α phosphorylation, ATP-activated LPS-primed J774A.1 macrophages; type: cell-based, murine; conditions: compound 1h 20 μM
# Protocol: as §2
# as §1, with “h.” for “h. After washing three times in PBS with 0.1% Tween 20, the membrane was incubated with an HRP-conjugated secondary antibody directed against the primary antibody.”
# [1] = LPS-primed J774A.1, compound 30 min before ATP stimulation
smiles,measurement,setting,value
O=c1cc(O)cc(/C=C/C=C/C=C/C=C/c2[nH]ccc2Cl)o1 [Compound 1h],TNF-α secretion,"TNF-α; LPS-activated RAW 264.7, LPS 1 μg/ml 24 h","slight reduced by compounds 1h, 1i and 1n, but not significantly"
same,background level of TNF-α,"TNF-α; compound alone, no LPS, data not shown",did not alter
same,caspase-1 activation,"caspase-1; J774A.1, compound before LPS and ATP treatment",significantly inhibited
same,caspase-1 activation,caspase-1; [1],not caspase-1 activation
same,ATP-induced ROS production,"ROS; J774A.1, compound 1h 20 μM added before LPS priming",inhibited ATP-induced ROS production significantly
same,ATP-induced ROS production,ROS; [1],reduces ATP-induced ROS production slightly
same,ATP-induced PKC-α phosphorylation,PKC-α,inhibited
